In patent US12527778B2, “Enantiomers of a series of antiviral compounds” (Innovative Molecules GmbH, priority 2017, dated 2026):

Assay: aqueous solubility (PBS, pH 7.4), shake flask
Assay type: physicochemical
Method: The aqueous solubility (PBS, pH 7.4) was determined at Eurofins, Cerep, Panlabs according to C. A. Lipinski et al. Adv. Drug Del. Rev. 1997:46, 3.
Measurement of the aqueous solubility was performed according to Lipinski, C. A. et al. Adv. Drug Del. Rev. 1997:46, 3. The relevant information from the literature is described below.
In addition, chromatographic purity (%) was defined as the peak area of the principal peak relative to the total integrated peak area in the HPLC chromatogram of the calibration standard.

## Cc1nc(N(C)C(=O)Cc2ccc(-c3cc(F)ccc3F)cc2)sc1S(C)(=N)=O (racemic) [Example 7, 2-(2′,5′-Difluoro-[1,1′-biphenyl]-4-yl)-N-methyl-N-(4-methyl-5-(S-methylsulfonimidoyl)thiazol-2-yl)acetamide]
  solubility in comparison to Example 87 (WO2001/047904): significantly increased solubility (at least one order of magnitude)
